# Measurements reported in US20260207535A1, “CRIBLAGE INHIBITEURS USP8” (COMMISSARIAT A L'ENERGIE ATOMIQUE ET AUX ENERGIES …, priority 2022, published 2026).
# Target: T1, Full length USP8 (USP8FL) (Homo sapiens, UniProt P40818)
# T1 construct: purchased BostonBiochem E-520
# T1 sequence (P40818 1-1118): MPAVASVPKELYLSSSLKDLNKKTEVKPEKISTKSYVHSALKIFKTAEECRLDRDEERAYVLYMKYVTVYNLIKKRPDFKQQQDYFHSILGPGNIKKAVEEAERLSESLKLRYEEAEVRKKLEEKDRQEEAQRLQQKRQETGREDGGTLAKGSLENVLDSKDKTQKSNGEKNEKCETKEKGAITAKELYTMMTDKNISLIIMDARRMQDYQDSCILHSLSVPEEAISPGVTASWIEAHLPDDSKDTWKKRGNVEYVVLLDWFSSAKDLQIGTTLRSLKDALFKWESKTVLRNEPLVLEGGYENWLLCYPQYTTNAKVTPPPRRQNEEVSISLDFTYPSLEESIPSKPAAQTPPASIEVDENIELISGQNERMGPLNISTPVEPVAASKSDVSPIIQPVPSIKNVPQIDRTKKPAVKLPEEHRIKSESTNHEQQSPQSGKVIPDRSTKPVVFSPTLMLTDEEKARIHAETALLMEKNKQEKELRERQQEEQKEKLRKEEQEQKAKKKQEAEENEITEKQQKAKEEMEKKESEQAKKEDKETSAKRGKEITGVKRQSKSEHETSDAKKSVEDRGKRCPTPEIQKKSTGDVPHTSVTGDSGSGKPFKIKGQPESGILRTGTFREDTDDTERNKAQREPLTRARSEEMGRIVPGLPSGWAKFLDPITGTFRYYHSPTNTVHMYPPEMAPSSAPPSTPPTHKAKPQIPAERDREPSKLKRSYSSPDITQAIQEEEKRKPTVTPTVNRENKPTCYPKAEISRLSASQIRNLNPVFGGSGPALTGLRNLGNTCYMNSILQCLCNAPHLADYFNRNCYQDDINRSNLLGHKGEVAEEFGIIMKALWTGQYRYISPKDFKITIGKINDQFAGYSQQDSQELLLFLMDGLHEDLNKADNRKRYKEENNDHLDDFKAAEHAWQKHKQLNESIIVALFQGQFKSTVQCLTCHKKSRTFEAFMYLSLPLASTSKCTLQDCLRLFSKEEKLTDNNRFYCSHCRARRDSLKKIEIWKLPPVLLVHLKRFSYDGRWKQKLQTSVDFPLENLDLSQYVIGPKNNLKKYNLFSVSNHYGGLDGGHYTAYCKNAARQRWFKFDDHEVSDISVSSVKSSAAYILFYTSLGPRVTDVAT
# Test: USP8FL (full length USP8) enzymatic inhibition, Ub-Rhodamine 110 hydrolysis in L-cysteine buffer
# Format: biochemical
# Method: USP8 FL (USP8 Full Length) was incubated at a concentration of 75 nM in the presence of Ub-Rho (UBIQUIGENT ref. 60-0117-050) at a final concentration of 0.1 μM, in conditions ensuring linearity of enzyme activity throughout the assay in a specific buffer. Compounds were added to the reaction mix at different doses just before the substrate. The enzymatic reaction kinetics were monitored by measuring fluorescence elicited by the hydrolysis of Ub-Rho over 30 min.
# In this setup, an in-house purified catalytic domain of USP8 (USP8CD) was used at a concentration of 80 nM in the presence of the artificial substrate Ubiquitin-Rhodamine 110 (Ub-Rho) (ref: 60-0117-050 Ubiquigent) at a final concentration of 0.1 μM, in conditions ensuring linearity of enzyme activity throughout the assay incubation time. Enzymatic assay was performed in a Tris HCl buffer (40 mM Tris HCl pH 7.4, Ovalbumine 0.5 mg/ml, Cysteine HCl 5.5 mM). Compounds to be tested were added to the reaction mix and incubated with enzyme for 20 min, before the substrate. The enzymatic reaction kinetics were monitored by measuring fluorescence elicited by the hydrolysis of the peptidyl Ub-Rho over 30 minutes. The negative control was the solvent DMSO at 1%.
# Full length USP8 (USPBFL) (BostonBiochem ref. E-520) were used at a concentration of 75 nM in the presence of a ubiquitin substrate, i.e., the Ub-Rhodamine 110 (Ub-Rho) (Ubiquigent ref. 60-0117-050) at a final concentration of 0.1 μM. Enzymatic assays were performed as described for USP8-CD except that USP-FL was used at a concentration of 75 nM. The compounds were used at a final concentration of 0.1, 1, 5, 10, 50 and 100 μM in DMSO 0.5%. The USP8 catalytic activity was monitored both before adding the substrate (TO) and after twenty minutes of incubation at room temperature (Final Time TF). The enzymatic reaction kinetics were monitored by measuring fluorescence elicited by the hydrolysis of the Ub-Rho bound over 30 minutes.
smiles,measurement,setting,value
"Cc1cc(C(C#N)c2ccc(Cl)cc2)c(Cl)cc1NC(=O)c1cc(I)cc(I)c1O (centres unmarked) [Closantel, reference compound]",activity against USP8 (CD and FL),USP8 CD and FL,active
same,IC50,"USP8 FL 75 nM, Ub-Rho 0.1 μM, L-cysteine buffer, read-out: USP8FL inhbition IC50 [μM] (CI: Confidence Interval)",12 µM
